From US20240166652A1, “MODULATORS OF THE INTEGRATED STRESS PATHWAY” (Calico Life Sciences LLC, priority 2017, published 2024) come the findings set out here.

Bounds are passed on as bounds.

For this assay, the system named is ATF4 luciferase reporter in HEK293T cells. Nature of the assay: ATF4-Luc assay (ATF4 luciferase reporter, tunicamycin-treated HEK293T cells). It counts as cell-based, human. To be noted: Homo sapiens, HEK-293T; HEK293T cells carrying the ATF4 luciferase reporter, 1 μg/mL tunicamycin, 7 hours. (In general: In a reporter assay the amount or activity of a reporter protein is the signal.)
On to `O=C(COc1ccc(Cl)c(F)c1)NC12CC(NC(=O)C(OCCO)c3ccc(F)cc3)(C1)C2` (centres unmarked) [Compound 779, N-{3-[2-(4-chloro-3-fluorophenoxy)acetamido]bicyclo[1.1.1]pentan-1-yl}-2-(4-fluorophenyl)-2-(2-hydroxyethoxy)acetamide], for which the EC50 was greater than 2000 nM.

Turning to `O=C(COc1ccc(OC(F)(F)F)cc1)NC12CCC(NC(=O)COc3ccc4c(c3)OC(F)(F)O4)(CC1)[C@@H](O)C2` [Compound 780, 2-[(2,2-difluoro-2H-1,3-benzodioxol-5-yl)oxy]-N-[(2S)-2-hydroxy-4-{2-[4-(trifluoromethoxy)phenoxy]acetamido}bicyclo[2.2.2]octan-1-yl]acetamide], the EC50 was less than 10 nM.

Take `O=C(COc1ccc(OC(F)(F)F)cc1)NC12CCC(NC(=O)COc3ccc(F)cc3)(CC1)[C@@H](O)C2` [Compound 781, 2-(4-fluorophenoxy)-N-[(2S)-2-hydroxy-4-{2-[4-(trifluoromethoxy)phenoxy]acetamido}bicyclo[2.2.2]octan-1-yl]acetamide]: the EC50 is less than 10 nM.

In the case of `CCc1ccc(OCC(=O)NC23CCC(NC(=O)COc4ccc(Cl)c(F)c4)(CC2)[C@@H](O)C3)cc1` [Compound 782, 2-(4-chloro-3-fluorophenoxy)-N-{(2S)-4-[2-(4-ethylphenoxy)acetamido]-2-hydroxybicyclo[2.2.2]octan-1-yl}acetamide], the EC50 was less than 10 nM.

On to `O=C(COc1ccc(OC(F)(F)F)cc1)NC12CCC(NC(=O)COc3ccc(Cl)cc3)(CC1)[C@@H](O)C2` [Compound 783, 2-(4-chlorophenoxy)-N-[(2S)-2-hydroxy-4-{2-[4-(trifluoromethoxy)phenoxy]acetamido}bicyclo[2.2.2]octan-1-yl]acetamide], for which the EC50 was less than 10 nM.

In the case of `O=C(COc1ccc(OC(F)(F)F)cc1)NC12CCC(NC(=O)COc3ccc(F)c(F)c3)(CC1)[C@@H](O)C2` [Compound 784, 2-(3,4-difluorophenoxy)-N-[(2S)-2-hydroxy-4-{2-[4-(trifluoromethoxy)phenoxy]acetamido}bicyclo[2.2.2]octan-1-yl]acetamide], the EC50 is less than 10 nM.

As for `O=C(COc1ccc(OC(F)(F)F)cc1)NC12CCC(NC(=O)COc3ccc(OC(F)(F)F)cc3)(CC1)[C@@H](O)C2` [Compound 785, N,N′-[(2S)-2-hydroxybicyclo[2.2.2]octane-1,4-diyl]bis{2-[4-(trifluoromethoxy)phenoxy]acetamide}], the EC50 was 50 to 250 nM.

On to `O=C(COc1ccc2c(c1)OC(F)(F)O2)NC12CCC(NC(=O)COc3ccc(OC(F)(F)F)cc3)(CC1)[C@@H](O)C2` [Compound 786, 2-[(2,2-difluoro-2H-1,3-benzodioxol-5-yl)oxy]-N-[(3S)-3-hydroxy-4-{2-[4-(trifluoromethoxy)phenoxy]acetamido}bicyclo[2.2.2]octan-1-yl]acetamide], for which the EC50 was less than 10 nM.

For `Cc1ccc(OCC(=O)NC23CCC(NC(=O)COc4ccc(Cl)cc4)(CC2)[C@@H](O)C3)cc1` [Compound 787, 2-(4-chlorophenoxy)-N-{(2S)-2-hydroxy-4-[2-(4-methylphenoxy)acetamido]bicyclo[2.2.2]octan-1-yl}acetamide], the EC50 was less than 10 nM.

In the case of `Cc1ccc(OCC(=O)NC23CCC(NC(=O)COc4ccc(F)c(F)c4)(CC2)[C@@H](O)C3)cc1` [Compound 788, 2-(3,4-difluorophenoxy)-N-{(2S)-2-hydroxy-4-[2-(4-methylphenoxy)acetamido]bicyclo[2.2.2]octan-1-yl}acetamide], the EC50 was less than 10 nM.

Regarding `O=C(CO)Nc1cc(Cl)ccc1OCC(=O)NC12CC(NC(=O)COc3ccc(Cl)c(F)c3)(C1)C2` [Compound 789, 2-(4-chloro-3-fluorophenoxy)-N-(3-{2-[4-chloro-2-(2-hydroxyacetamido)phenoxy]acetamido}bicyclo[1.1.1]pentan-1-yl)acetamide], the EC50 lay in the range of 50 to 250 nM.

For `O=C(COc1ccc(F)c(C(F)F)c1)NC12CCC(NC(=O)COc3ccc(Cl)c(F)c3)(CC1)[C@@H](O)C2` [Compound 790, 2-(4-chloro-3-fluorophenoxy)-N-[(2S)-4-{2-[3-(difluoromethyl)-4-fluorophenoxy]acetamido}-2-hydroxybicyclo[2.2.2]octan-1-yl]acetamide], the EC50 was less than 10 nM.

Consider `O=C(CO)NC(COC(=O)NC12CC(NC(=O)COc3ccc(Cl)c(F)c3)(C1)C2)c1ccc(Cl)cc1` (centres unmarked) [Compound 791, 2-(4-chlorophenyl)-2-(2-hydroxyacetamido)ethyl {3-[2-(4-chloro-3-fluorophenoxy)acetamido]bicyclo[1.1.1]pentan-1-yl}carbamate], for which the concentration for a half-maximal effect (EC50) was greater than 2000 nM.

Turning to `COc1cccc(OCC(=O)NC23CCC(NC(=O)COc4ccc(Cl)c(F)c4)(CC2)[C@@H](O)C3)n1` [Compound 792, 2-(4-chloro-3-fluorophenoxy)-N-[(2S)-2-hydroxy-4-{2-[(6-methoxypyridin-2-yl)oxy]acetamido}bicyclo[2.2.2]octan-1-yl]acetamide], the EC50 was less than 10 nM.

Take `COc1cc(Cl)ccc1OCC(=O)NC12CCC(NC(=O)COc3ccc(Cl)c(F)c3)(CC1)[C@@H](O)C2` [Compound 793, 2-(4-chloro-3-fluorophenoxy)-N-{(2S)-4-[2-(4-chloro-2-methoxyphenoxy)acetamido]-2-hydroxybicyclo[2.2.2]octan-1-yl}acetamide]: the EC50 is less than 10 nM.

With `COc1cc(OCC(=O)NC23CCC(NC(=O)COc4ccc(Cl)c(F)c4)(CC2)[C@@H](O)C3)ccc1F` [Compound 794, 2-(4-chloro-3-fluorophenoxy)-N-{(2S)-4-[2-(4-fluoro-3-methoxyphenoxy)acetamido]-2-hydroxybicyclo[2.2.2]octan-1-yl}acetamide], the EC50 is less than 10 nM.

In the case of `O=C(COc1ccc(Cl)c(F)c1)NC12CCC(NC(=O)COc3ccc(F)c(OC(F)F)c3)(CC1)[C@@H](O)C2` [Compound 795, 2-(4-chloro-3-fluorophenoxy)-N-[(3S)-4-{2-[3-(difluoromethoxy)-4-fluorophenoxy]acetamido}-3-hydroxybicyclo[2.2.2]octan-1-yl]acetamide], the EC50 is less than 10 nM.

For the compound `O=C(COc1ccc(F)c(F)c1)NC12CCC(NC(=O)COc3ccc(F)c(OC(F)F)c3)(CC1)[C@@H](O)C2` [Compound 796, 2-[3-(difluoromethoxy)-4-fluorophenoxy]-N-{(2S)-4-[2-(3,4-difluorophenoxy)acetamido]-2-hydroxybicyclo[2.2.2]octan-1-yl}acetamid6], the EC50 fell in the range of 10 to 50 nM.

Turning to `O=C(COc1ccc(Cl)c(F)c1)NC12CC(NC(=O)COc3ccc(Cl)cc3NCCO)(C1)C2` [Compound 797, 2-(4-chloro-3-fluorophenoxy)-N-[3-(2-{4-chloro-2-[(2-hydroxyethyl)amino]phenoxy}acetamido)bicyclo[1.1.1]pentan-1-yl]acetamide], the EC50 was in the range of 50 to 250 nM.

For the compound `O=C(COc1ccc2c(c1)OC(F)(F)O2)NC12CCC(NC(=O)COc3ccc(F)cc3)(CC1)[C@@H](O)C2` [Compound 798, 2-[(2,2-difluoro-2H-1,3-benzodioxol-5-yl)oxy]-N-{(3S)-4-[2-(4-fluorophenoxy)acetamido]-3-hydroxybicyclo[2.2.2]octan-1-yl}acetamide], the EC50 is less than 10 nM.

For `O=C(COc1ccc2c(c1)OC(F)(F)O2)NC12CCC(NC(=O)COc3ccc(Cl)cc3)(CC1)[C@@H](O)C2` [Compound 799, 2-(4-chlorophenoxy)-N-[(2S)-4-{2-[(2,2-difluoro-2H-1,3-benzodioxol-5-yl)oxy]acetamido}-2-hydroxybicyclo[2.2.2]octan-1-yl]acetamide], the EC50 was less than 10 nM.

`COCC(=O)Nc1cc(Cl)ccc1OCC(=O)NC12CC(NC(=O)COc3ccc(Cl)c(F)c3)(C1)C2` [Compound 800, 2-(4-chloro-3-fluorophenoxy)-N-(3-{2-[4-chloro-2-(2-methoxyacetamido)phenoxy]acetamido}bicyclo[1.1.1]pentan-1-yl)acetamide]: the EC50 lay within 50 to 250 nM.

Turning to `O=C(COc1ccc(OC(F)F)c(F)c1)NC12CCC(NC(=O)COc3ccc(Cl)c(F)c3)(CC1)[C@@H](O)C2` [Compound 801, 2-(4-chloro-3-fluorophenoxy)-N-[(2S)-4-{2-[4-(difluoromethoxy)-3-fluorophenoxy]acetamido}-2-hydroxybicyclo[2.2.2]octan-1-yl]acetamide], the EC50 was less than 10 nM.

Turning to `O=C(COc1ccc(Cl)c(F)c1)NC12CCC(NC(=O)COc3ccc(OC(F)F)c(F)c3)(CC1)[C@@H](O)C2` [Compound 802, 2-(4-chloro-3-fluorophenoxy)-N-[(3S)-4-{2-[4-(difluoromethoxy)-3-fluorophenoxy]acetamido}-3-hydroxybicyclo[2.2.2]octan-1-yl]acetamide], the EC50 is less than 10 nM.

In the case of `O=C(COc1ccc(F)c(F)c1)NC12CCC(NC(=O)COc3ccc(OC(F)F)c(F)c3)(CC1)[C@@H](O)C2` [Compound 803, 2-[4-(difluoromethoxy)-3-fluorophenoxy]-N-{(2S)-4-[2-(3,4-difluorophenoxy)acetamido]-2-hydroxybicyclo[2.2.2]octan-1-yl}acetamide], the EC50 is less than 10 nM.

For `O=C(COc1ccc2c(c1)OC(F)(F)O2)NC12CCC(NC(=O)COc3ccc(F)c(F)c3)(CC1)[C@@H](O)C2` [Compound 804, 2-[(2,2-difluoro-2H-1,3-benzodioxol-5-yl)oxy]-N-{(3S)-4-[2-(3,4-difluorophenoxy)acetamido]-3-hydroxybicyclo[2.2.2]octan-1-yl}acetamide], the EC50 was less than 10 nM.

Regarding `O=C(COc1ccc(Cl)c(F)c1)NC12CC(NC(=O)COc3ccccc3OCCO)(C1)C2` [Compound 805, 2-(4-chloro-3-fluorophenoxy)-N-(3-{2-[2-(2-hydroxyethoxy)phenoxy]acetamido}bicyclo[1.1.1]pentan-1-yl)acetamide], the EC50 lay within 500 to 2000 nM.

In the case of `O=C(COc1ccc(Cl)c(F)c1)NC12CCC(NC(=O)COc3cccnn3)(CC1)[C@@H](O)C2` [Compound 806, 2-(4-chloro-3-fluorophenoxy)-N-[(3S)-3-hydroxy-4-{2-[(pyridazin-3-yl)oxy]acetamido}bicyclo[2.2.2]octan-1-yl]acetamide], the EC50 was in the range of 500 to 2000 nM.

On to `O=C(CC(=O)c1ccc(Cl)cc1)NC12CCC(NC(=O)COc3ccc(Cl)c(F)c3)(CC1)[C@@H](O)C2` [Compound 807, N-{(3S)-4-[2-(4-chloro-3-fluorophenoxy)acetamido]-3-hydroxybicyclo[2.2.2]octan-1-yl}-3-(4-chlorophenyl)-3-oxopropanamide], for which the EC50 was 10 to 50 nM.

In general, EC50 refers to the midpoint of the concentration-response curve.
